Test results as given in article PMC11514314, “The aquastatin biosynthetic gene cluster encodes a versatile polyketide synthase capable of synthesising heteromeric depsides with diverse alkyl side chains” (Chemical Science, 2024).
≈ marks a conversion by molar mass, not a printed value. Where two headings read alike, the source gives them in different places.

What was measured:
[1] = tested on: Saccharomyces cerevisiae (ATCC 9763); test: Antifungal EuTOX bioassay, S. cerevisiae; assay type: cell-based; conditions: S. cerevisiae ATCC 9763, 48 h; for MIC: Saccharomyces cerevisiae, ATCC9763, read-out: Minimum inhibitory concentration (MIC) S. cerevisiae
Method: (§1) 12. Bioactivity screening.
(§2) Purified metabolites were dissolved in DMSO to create stock solutions of 10,000 µg/mL. An aliquot from each stock solution was transferred to the first well of Rows B to G on a 96-well microtitre plate and then serially diluted two-fold with DMSO across the 12 wells of the plate to achieve a 2,048-fold concentration gradient. Bioassay medium was added to an aliquot of each diluted solution to achieve a 100-fold dilution in the final bioassay. This […]
(§3) 0.1 µg/mL in 2% DMSO for yeasts. Row A served as a control with no test compound (indicating no inhibition), and Row H was left uninoculated (serving as a control for complete inhibition). […]
(§4) MIC endpoints were determined visually. Absorbance was measured using a Multiskan Skyhigh […]
Saccharomyces cerevisiae (ATCC 9763) was used as indicator species for antifungal activity, employing the EuTOX bioassay platform. A yeast suspension (50 mL in a 250 mL flask) was prepared in 1% malt extract broth by cultivating it for 24 h at 250 rpm and 24 °C. The suspension was diluted to absorbances of 0.03 absorbance units per mL and 30 µL were added to the wells of a 96-well microtitre plate containing the test compounds dispersed in 100 µL of malt extract agar with bromocresol green (50 µg/mL). The plates were incubated at 28 °C for 48 h, during which the positive control wells changed colour from blue to yellow. Blasticidin S HCl was used

B. subtilis (ATCC 6633) = test: Antibacterial ProTOX bioassay, B. subtilis; assay type: cell-based; conditions: Bacillus subtilis, ATCC6633; B. subtilis ATCC 6633, 48 h, 28 °C; read-out: Minimum inhibitory concentration (MIC) B. subtilis
Method: as §1, §2
(§5) 0.1 µg/mL in 2% DMSO for yeasts. Row A served as a control with no test compound (indicating no inhibition), and Row H was left uninoculated (serving as a control for complete inhibition).
(§6) B. subtilis (ATCC 6633), S. aureus (ATCC 25923) and MRSA (ATCC 33592) were used as indicator species for antibacterial activity, employing the ProTOX bioassay platform. A bacterial suspension (50 mL in a 250 mL flask) was prepared in nutrient media by cultivating it for 24 h at 250 rpm and 28 °C. The suspension was diluted to an absorbance of 0.01 absorbance units per mL, and 10 µL aliquots were added to the wells of a 96-well microtitre plate containing the test compounds dispersed in 190 µL of nutrient broth (Amyl) with 10 µL resazurin (12.5 µg/mL). The plates were incubated at 28 °C for 48 h, during which the positive control wells changed colour from blue to light pink. Tetracycline was employed as a control for B. subtilis, while ampicillin was used for S. aureus and MRSA. MIC endpoints were determined visually. Absorbance was measured using a Multiskan Skyhigh Microplate Spectrophotometer (Thermo Fisher Scientific) at 605 nm.

[2] = tested on: NS-1 (ATCC TIB-18) mouse myeloma cells; test: Cytotoxicity resazurin assay, NS-1 cells; assay type: cell-based; conditions: for IC50: read-out: IC50 NS-1; for cytotoxicity against NS-1 cells (in words): mouse myeloma NS-1
Method: as §1, §2, §3, §4, §4
(§7) NS-1 (ATCC TIB-18) mouse myeloma and NFF (ATCC PCS -201) human neonatal foreskin fibroblast cells were each inoculated in 96-well microtitre plates (190 µL) at 50,000 cells/mL in DMEM (Dulbecco's Modified Eagle Medium + 10% fetal bovine serum (FBS) + 1% penicillin/streptomycin (10,000 U/mL / 10,000 µg/mL, Life Technologies Cat. No. 15140122), together with resazurin (250 µg/mL; 10 µL) and incubated in 37 °C (5% CO2) incubator. The plates were incubated for 96 h during which time the positive control wells change colour from a blue to pink colour. The absorbance of each well was measured using Multiskan Skyhigh Microplate Spectrophotometer (Thermofisher Scientific) at 605 nm. Sparsomycin was used as a control. The IC50 values were determined using a sigmoidal dose-response model with variable slope in GraphPad Prism 8.

S. aureus (ATCC 25923) = test: Antibacterial ProTOX bioassay, S. aureus; assay type: cell-based; conditions: Staphylococcus aureus, ATCC25923; S. aureus ATCC 25923, 48 h, 28 °C; read-out: Minimum inhibitory concentration (MIC) S. aureus
Method: as §1, §2, §5, §6

[3] = tested on: methicillin-resistant S. aureus (MRSA); set-up: method as in PMID 19952429; conditions: cited from earlier work
[4] = tested on: fatty acid synthase II (FAS II); conditions: cited from earlier work
MRSA (ATCC 33592) = test: Antibacterial ProTOX bioassay, MRSA; assay type: cell-based, methicillin-resistant S. aureus; conditions: MRSA ATCC 33592, 48 h, 28 °C; for MIC: Staphylococcus aureus, read-out: Minimum inhibitory concentration (MIC) MRSA
Method: as §1, §2, §5, §6

[5] = tested on: NFF (ATCC PCS-201) human neonatal foreskin fibroblast cells; test: Cytotoxicity resazurin assay, NFF cells; assay type: cell-based; conditions: for IC50: Homo sapiens, 96 h, read-out: IC50 NFF
Method: as §1, §2, §3, §4, §4, §7

[6] = tested on: Saccharomyces cerevisiae (ATCC 9763); conditions: previously reported; cited from earlier work
[7] = NS1, mouse myeloma NS-1 ATCC TIB-18, 96 h
[8] = neonatal foreskin fibroblast NFF

Molecule	MIC [1]	MIC (B. subtilis (ATCC 6633))	IC50 [2, 7]	MIC (S. aureus (ATCC 25923))	antibacterial activity against MRSA [3]	FAS II inhibitory activity [4]	MIC (MRSA (ATCC 33592))	IC50 [5, 8]	cytotoxicity against NS-1 cells (in words) [2]	cytotoxicity against NFF cells (in words) [5]	Minimum inhibitory concentration (MIC) MRSA (MRSA (ATCC 33592))	Minimum inhibitory concentration (MIC) S. cerevisiae [1]	IC50 ([2]; Mus musculus, NS1, 96 h)	IC50 ([5]; Fibroblast)	antifungal activity against S. cerevisiae (in words) [6]
CCCCCCCCCCCCCCCc1cc(O)cc(O)c1C(=O)Oc1cc(C)c(C(=O)O)c(O)c1 [1b, Aquastatin B]	> 200 µg/mL	1.6 µg/mL (≈ 3.11 µM)	> 50 µg/mL	> 100 µg/mL	demonstrated antibacterial activity	do not demonstrate	> 50 µg/mL	> 100 µg/mL	–	–	–	–	–	–	–
CCCCCCCCCCCCCCCc1cc(O[C@@H]2O[C@H](CO)[C@H](O)[C@H](O)[C@H]2O)cc(O)c1C(=O)OC [1c, aquastatin C]	> 200 µg/mL	> 100 µg/mL	> 100 µg/mL	> 100 µg/mL	–	do not demonstrate	> 100 µg/mL	> 100 µg/mL	–	–	–	–	–	–	–
CCCCCCCCCCCCCCCc1cc(O[C@@H]2O[C@H](CO)[C@H](O)[C@H](O)[C@H]2O)cc(O)c1C(=O)O [1d, Aquastatin D]	3.1 µg/mL (≈ 5.89 µM)	3.1 µg/mL (≈ 5.89 µM)	> 50 µg/mL	12.5 µg/mL (≈ 23.7 µM)	–	–	6.3 µg/mL (≈ 12 µM)	> 100 µg/mL	did not exhibit cytotoxicity	did not exhibit cytotoxicity	–	–	–	–	–
CCCCCCCCCCCCCCCc1cc(O)cc(O)c1C(=O)OC [1e, aquastatin E]	> 200 µg/mL	> 100 µg/mL	> 100 µg/mL	> 100 µg/mL	–	–	> 100 µg/mL	> 100 µg/mL	–	–	–	–	–	–	–
CCCCCCCCCCCCCCCc1cc(O)cc(O)c1C(=O)O [1f, corticiolic acid]	> 200 µg/mL	0.8 µg/mL (≈ 2.19 µM)	25 µg/mL (≈ 68.6 µM)	3.1 µg/mL (≈ 8.5 µM)	–	–	3.1 µg/mL (≈ 8.5 µM)	> 100 µg/mL	–	–	–	–	–	–	–
CCCCCCCCCCCCCc1cc(O[C@@H]2O[C@H](CO)[C@H](O)[C@H](O)[C@H]2O)cc(O)c1C(=O)Oc1cc(C)c(C(=O)O)c(O)c1 [3a, Ariestatin A]	> 200 µg/mL	1.6 µg/mL (≈ 2.47 µM)	> 100 µg/mL	3.1 µg/mL (≈ 4.78 µM)	–	–	6.3 µg/mL (≈ 9.71 µM)	> 100 µg/mL	–	–	–	–	–	–	–
CCCCCCCCCCCCCc1cc(O)cc(O)c1C(=O)Oc1cc(C)c(C(=O)O)c(O)c1 [3b, Ariestatin B]	> 200 µg/mL	1.6 µg/mL (≈ 3.29 µM)	> 50 µg/mL	12.5 µg/mL (≈ 25.7 µM)	–	–	12.5 µg/mL (≈ 25.7 µM)	> 50 µg/mL	–	–	–	–	–	–	–
CCCCCCCCCCCCCc1cc(O[C@@H]2O[C@H](CO)[C@H](O)[C@H](O)[C@H]2O)cc(O)c1C(=O)OC [3c, Ariestatin C]	> 200 µg/mL	> 100 µg/mL	0.2 µg/mL (≈ 0.39 µM)	> 100 µg/mL	–	–	> 100 µg/mL	> 100 µg/mL	cytotoxicity was observed	no activity was detected	–	–	–	–	–
CCCCCCCCCCCCCc1cc(O[C@@H]2O[C@H](CO)[C@H](O)[C@H](O)[C@H]2O)cc(O)c1C(=O)O [3d, Ariestatin D]	3.1 µg/mL (≈ 6.22 µM)	25 µg/mL (≈ 50.1 µM)	> 50 µg/mL	> 50 µg/mL	–	–	> 50 µg/mL	> 50 µg/mL	did not exhibit cytotoxicity	did not exhibit cytotoxicity	–	–	–	–	–
CCCCCC/C=C\CCCCCCCc1cc(O[C@@H]2O[C@H](CO)[C@H](O)[C@H](O)[C@H]2O)cc(O)c1C(=O)Oc1cc(C)c(C(=O)O)c(O)c1 [4a, Capricostatin A]	> 200 µg/mL	1.6 µg/mL (≈ 2.37 µM)	> 100 µg/mL	3.1 µg/mL (≈ 4.59 µM)	–	–	6.3 µg/mL (≈ 9.34 µM)	> 100 µg/mL	–	–	–	–	–	–	–
CCCCCC/C=C\CCCCCCCc1cc(O)cc(O)c1C(=O)Oc1cc(C)c(C(=O)O)c(O)c1 [4b, Capricostatin B]	> 200 µg/mL	1.6 µg/mL (≈ 3.12 µM)	0.05 µg/mL (≈ 0.0975 µM)	12.5 µg/mL (≈ 24.4 µM)	–	–	12.5 µg/mL (≈ 24.4 µM)	> 100 µg/mL	–	–	–	–	–	–	–
CCCCCC/C=C\CCCCCCCc1cc(O[C@@H]2O[C@H](CO)[C@H](O)[C@H](O)[C@H]2O)cc(O)c1C(=O)OC [4c, capricostatin C]	> 200 µg/mL	> 100 µg/mL	6.3 µg/mL (≈ 11.7 µM)	> 100 µg/mL	–	–	> 100 µg/mL	6.3 µg/mL (≈ 11.7 µM)	–	–	–	–	–	–	–
CCCCCC/C=C\CCCCCCCc1cc(O[C@@H]2O[C@H](CO)[C@H](O)[C@H](O)[C@H]2O)cc(O)c1C(=O)O [4d, Capricostatin D]	3.1 µg/mL (≈ 5.91 µM)	25 µg/mL (≈ 47.7 µM)	> 50 µg/mL	> 50 µg/mL	–	–	> 50 µg/mL	> 100 µg/mL	did not exhibit cytotoxicity	did not exhibit cytotoxicity	–	–	–	–	–
CCCCCC/C=C\CCCCCCCc1cc(O)cc(O)c1C(=O)O [4f, Capricostatin F]	> 200 µg/mL	0.8 µg/mL (≈ 2.21 µM)	0.05 µg/mL (≈ 0.138 µM)	6.3 µg/mL (≈ 17.4 µM)	–	–	6.3 µg/mL (≈ 17.4 µM)	> 100 µg/mL	–	–	–	–	–	–	–
CC1(C)S[C@@H]2[C@H](NC(=O)[C@H](N)c3ccccc3)C(=O)N2[C@H]1C(=O)O [ampicillin, reference compound]	–	–	–	3.1 µg/mL (≈ 8.87 µM)	–	–	> 100 µg/mL	–	–	–	>100 µg/mL	–	–	–	–
CN(CC[C@H](N)CC(=O)N[C@@H]1C=C[C@@H](n2ccc(N)nc2=O)O[C@H]1C(=O)O)C(=N)N.Cl [blasticidin S HCl, reference compound]	–	–	–	–	–	–	–	–	–	–	–	3.1 µg/mL	–	–	–
Cc1cc(O)cc(O)c1C(=O)O [compound 5, orsellinic acid]	> 200 µg/mL	> 100 µg/mL	> 100 µg/mL	> 100 µg/mL	–	–	> 100 µg/mL	> 100 µg/mL	–	–	–	–	–	–	–
CCCCCCCCCCCCCCCc1cc(O)cc(O)c1 [compound 6, adipostatin]	> 200 µg/mL	> 100 µg/mL	6.3 µg/mL (≈ 19.7 µM)	> 100 µg/mL	–	–	25 µg/mL (≈ 78 µM)	6.3 µg/mL (≈ 19.7 µM)	–	–	–	–	–	–	–
CSC[S@+]([O-])C[C@H](CO)NC(=O)/C=C/c1c(C)[nH]c(=O)[nH]c1=O [sparsomycin, reference compound]	–	–	–	–	–	–	–	–	–	–	–	–	1.7 µg/mL (≈ 4.7 µM)	1.7 µg/mL (≈ 4.7 µM)	–
CN(C)[C@@H]1C(O)=C(C(N)=O)C(=O)[C@@]2(O)C(O)=C3C(=O)c4c(O)cccc4[C@@](C)(O)[C@H]3C[C@@H]12 [tetracycline, reference compound]	–	6.3 µg/mL (≈ 14.2 µM)	–	–	–	–	–	–	–	–	–	–	–	–	–
geministatin D	–	–	–	–	–	–	–	–	–	–	–	–	–	–	displayed antifungal activity
